According to patent US8119692B2 (priority 2007, dated 2012):

Biological target: Lethal factor protease (Bacillus anthracis, UniProt P15917)
Experiment: biochemical
Details: LF (FRET) Ki^app

Sequence of Lethal factor protease (P15917 34-809 limits assumed): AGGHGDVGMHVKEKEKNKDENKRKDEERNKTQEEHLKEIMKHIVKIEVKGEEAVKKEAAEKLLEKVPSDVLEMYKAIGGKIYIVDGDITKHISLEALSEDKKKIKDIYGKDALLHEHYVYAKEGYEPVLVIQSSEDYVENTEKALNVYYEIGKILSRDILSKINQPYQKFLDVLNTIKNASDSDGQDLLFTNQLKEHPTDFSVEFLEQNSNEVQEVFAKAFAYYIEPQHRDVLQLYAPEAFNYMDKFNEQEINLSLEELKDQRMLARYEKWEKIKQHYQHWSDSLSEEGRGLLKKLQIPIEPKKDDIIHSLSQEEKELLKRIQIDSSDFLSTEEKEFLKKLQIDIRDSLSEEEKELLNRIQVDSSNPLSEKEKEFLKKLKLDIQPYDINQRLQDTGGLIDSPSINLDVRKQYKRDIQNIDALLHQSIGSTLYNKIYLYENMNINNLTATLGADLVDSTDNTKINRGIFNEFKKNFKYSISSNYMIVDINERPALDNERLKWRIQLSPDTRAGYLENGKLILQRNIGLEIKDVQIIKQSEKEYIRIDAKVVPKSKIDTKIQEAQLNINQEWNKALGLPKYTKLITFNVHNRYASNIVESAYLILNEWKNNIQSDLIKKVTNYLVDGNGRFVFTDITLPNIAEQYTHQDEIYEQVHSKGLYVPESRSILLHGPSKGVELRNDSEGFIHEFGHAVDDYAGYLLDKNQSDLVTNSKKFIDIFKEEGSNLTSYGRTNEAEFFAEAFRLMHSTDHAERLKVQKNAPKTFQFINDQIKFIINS

Structure (SMILES) | Ki
O=C(CCC(O)c1ccc(F)cc1)NO (racemic) [Compound 166976, 4-(4-fluorophenyl)-N,4-dihydroxybutanamide] | 138 µM
O=C(CCC(OCc1ccccc1)c1ccc(F)cc1)NO (racemic) [Compound 167151, 4-(benzyloxy)-4-(4-fluorophenyl)-N-hydroxybutanamide] | 130 µM
CCOC(CCC(=O)NO)c1ccc(F)cc1 (racemic) [Compound 167173, 4-ethoxy-4-(4-fluorophenyl)-N-hydroxybutanamide] | 171 µM
CSC(CCC(=O)NO)c1ccc(F)cc1 (racemic) [Compound 167366, 4-(4-Fluoro-phenyl)-N-hydroxy-4-methylsulfanyl-butyramide] | 10.9 µM
COC(CCC(=O)NO)c1ccc(F)cc1 (stereo not shown) [Compound 167157, 4-(4-fluorophenyl)-N-hydroxy-4-methoxybutanamide] | 11.7 µM
CO[C@H](CCC(=O)NO)c1ccc(F)cc1 [Compound 167204, (R)-4-(4-fluorophenyl)-N-hydroxy-4-methoxybutanamide] | 7.9 µM
CO[C@@H](CCC(=O)NO)c1ccc(F)cc1 [Compound 167205, (S)-4-(4-fluorophenyl)-N-hydroxy-4-methoxybutanamide] | 225 µM
O=C(CC[C@@H](O)c1ccc(F)cc1)NO [Compound 167206, (R)-4-(4-fluorophenyl)-N,4-dihydroxybutanamide] | 66.1 µM
CO[C@H](CCC(=O)NO)c1ccc(F)c(C)c1 [Compound 167223, (R)-4-(4-fluoro-3-methylphenyl)-N-hydroxy-4-methoxybutanamide] | 11.9 µM
COC(CCC(=O)NO)c1ccc(F)c(C)c1 (stereo not shown) [Compound 167232, 4-(4-fluoro-3-methylphenyl)-N-hydroxy-4-methoxybutanamide] | 8.9 µM
COC(CC(Cc1ccccc1)C(=O)NO)c1ccc(F)cc1 (stereo not shown) [Compound 167285] | > 300 µM
COC(CC(Cc1ccccc1)C(=O)NO)c1ccc(F)cc1 (stereo not shown) [Compound 167286, 2-Benzyl-4-(4-fluorophenyl)-N-hydroxy-4-methoxy-butyramide] | 168 µM
COC(CC(C)C(=O)NO)c1ccc(F)cc1 (stereo not shown) [Compound 167288, 4-(4-Fluoro-phenyl)-N-hydroxy-4-methoxy-2-methyl-butyramide] | 3.1 µM
CO[C@H](C[C@H](C)C(=O)NO)c1ccc(F)cc1 [Compound 167297, (2S,4R)-4-(4-fluorophenyl)-N-hydroxy-4-methoxy-2-methylbutanamide] | 2.3 µM
CO[C@H](C[C@H](Cc1ccccc1)C(=O)NO)c1ccc(F)cc1 [Compound 167298] | 89.5 µM
COC(CC(CCc1ccccc1)C(=O)NO)c1ccc(F)cc1 (stereo not shown) [Compound 167308, 4-(4-fluorophenyl)-N-hydroxy-4-methoxy-2-phenethylbutanamide] | 2.4 µM
CCCC[C@@H](C[C@@H](OC)c1ccc(F)cc1)C(=O)NO [Compound 167336, (S)-2-((R)-2-(4-fluorophenyl)-2-methoxyethyl)-N-hydroxyhexanamide] | 1.9 µM
CO[C@H](C[C@H](CCCc1ccccc1)C(=O)NO)c1ccc(F)cc1 [Compound 167337, (2S)-2-((2R)-2-(4-fluorophenyl)-2-methoxyethyl)-N-hydroxy-5-phenylpentanamide] | 7.8 µM
CO[C@@H](C[C@@H](CCCc1ccccc1)C(=O)NO)c1ccc(F)cc1 [Compound 167341, (2R)-2-((2S)-2-(4-fluorophenyl)-2-methoxyethyl)-N-hydroxy-5-phenylpentanamide] | 18 µM
CCCC[C@H](C[C@@H](OC)c1ccc(F)cc1)C(=O)NO [Compound 167353, (2R)-2-((2R)-2-(4-fluorophenyl)-2-methoxyethyl)-N-hydroxyhexanamide] | 5.8 µM
CO[C@H](C[C@H](C/C=C/c1ccccc1)C(=O)NO)c1ccc(F)cc1 [Compound 167354] | 9.3 µM
CO[C@H](C[C@H](C/C=C/C(c1ccccc1)c1ccccc1)C(=O)NO)c1ccc(F)cc1 [Compound 167371, (2S,4E)-2-((2R)-2-(4-fluorophenyl)-2-methoxyethyl)-N-hydroxy-6,6-diphenylhex-4-enamide] | 14 µM
CCCC[C@H](C[C@H](OC)c1ccc(F)cc1)C(=O)NO [Compound 167389, (2R)-2-((2S)-2-(4-fluorophenyl)-2-methoxyethyl)-N-hydroxyhexanamide] | 75.6 µM
CCCC[C@@H](C[C@H](OC)c1ccc(F)cc1)C(=O)NO [Compound 167390, (25)-2-((2S)-2-(4-fluorophenyl)-2-methoxyethyl)-N-hydroxyhexanamide] | 224 µM
CO[C@H](C[C@@H](CCCc1ccccc1)C(=O)NO)c1ccc(F)cc1 [Compound 167395, (2R)-2-((2R)-2-(4-fluorophenyl)-2-methoxyethyl)-N-hydroxy-5-phenylpentanamide] | 78.6 µM
CO[C@@H](C[C@H](CCCc1ccccc1)C(=O)NO)c1ccc(F)cc1 [Compound 167408] | > 300 µM

Structure (SMILES) | Ki
CCC[C@@H](C[C@@H](OC)c1ccc(F)cc1)C(=O)NO [Compound 167432, (S)-2-((R)-2-(4-fluorophenyl)-2-methoxyethyl)-N-hydroxypentanamide] | 1.57 µM
CO[C@H](C[C@H](CC1CC1)C(=O)NO)c1ccc(F)cc1 [Compound 167433, (2S,4R)-2-(cyclopropylmethyl)-4-(4-fluorophenyl)-N-hydroxy-4-methoxybutanamide] | 1.4 µM
C=CC[C@@H](C[C@@H](OC)c1ccc(F)cc1)C(=O)NO [Compound 167434, (2S)-2-((2R)-2-(4-fluorophenyl)-2-methoxyethyl)-N-hydroxypent-4-enamide] | 1.16 µM
COC(CCC(=O)NO)c1cccc(F)c1 (stereo not shown) [Compound 167456, 4-(3-fluorophenyl)-N-hydroxy-4-methoxybutanamide] | 51.6 µM
COc1ccc(C(CCC(=O)NO)OC)cc1 (stereo not shown) [Compound 167457, N-hydroxy-4-methoxy-4-(4-methoxyphenyl)butanamide] | 193 µM
COc1cccc(C(CCC(=O)NO)OC)c1 (stereo not shown) [Compound 167458, N-hydroxy-4-methoxy-4-(3-methoxyphenyl)butanamide] | 276 µM
COC(CCC(=O)NO)c1ccc(Cl)cc1 (stereo not shown) [Compound 167460, 4-(4-chlorophenyl)-N-hydroxy-4-methoxybutanamide] | 52.3 µM
COC(CCC(=O)NO)c1cccc(Cl)c1 (stereo not shown) [Compound 167461, 4-(3-chlorophenyl)-N-hydroxy-4-methoxybutanamide] | 87.4 µM
COC(CCC(=O)NO)c1ccc(C)c(F)c1 (stereo not shown) [Compound 167463, 4-(3-fluoro-4-methylphenyl)-N-hydroxy-4-methoxybutanamide] | 65.6 µM
COC(CCC(=O)NO)c1cccc(C)c1 (stereo not shown) [Compound 167491, N-hydroxy-4-methoxy-4-m-tolylbutanamide] | 176 µM
COC(CCC(=O)NO)c1cccc(C(F)(F)F)c1 (stereo not shown) [Compound 167492, N-hydroxy-4-methoxy-4-(3-(trifluoromethyl)phenyl)butanamide] | > 300 µM
COC(CCC(=O)NO)c1cccc(C)c1C (stereo not shown) [Compound 167495, 4-(2,3-dimethylphenyl)-N-hydroxy-4-methoxybutanamide] | 269 µM
COC(CCC(=O)NO)c1ccc(-c2ccccc2)cc1 (stereo not shown) [Compound 167506, 4-(biphenyl-4-yl)-N-hydroxy-4-methoxybutanamide] | 85.1 µM
COC(CCC(=O)NO)c1ccc(C(F)(F)F)cc1 (stereo not shown) [Compound 167511, N-hydroxy-4-methoxy-4-(4-(trifluoromethyl)phenyl)butanamide] | 240 µM
COC(CCC(=O)NO)c1ccccc1C (stereo not shown) [Compound 167540, N-hydroxy-4-methoxy-4-o-tolylbutanamide] | 152 µM
COC(CCC(=O)NO)c1ccc(C)cc1C (stereo not shown) [Compound 167541, 4-(2,4-dimethylphenyl)-N-hydroxy-4-methoxybutanamide] | 134 µM
COC(CCC(=O)NO)c1ccccc1F (stereo not shown) [Compound 167564, 4-(2-fluorophenyl)-N-hydroxy-4-methoxybutanamide] | 52.4 µM
C=CC[C@H](C[C@@H](OC)c1ccc(F)c(C)c1)C(=O)NO [Compound 167672, (2R)-2-((2R)-2-(4-fluoro-3-methylphenyl)-2-methoxyethyl)-N-hydroxypent-4-enamide] | 42 µM
C=CC[C@@H](C[C@@H](OC)c1ccc(F)c(C)c1)C(=O)NO [Compound 167673, (S)-2-((R)-2-(4-Fluoro-3-methylphenyl)-2-methoxyethyl)-N-hydroxypent-4-enamide] | 6.6 µM
CCC[C@H](C[C@@H](OC)c1ccc(F)c(C)c1)C(=O)NO [Compound 167674, (2R)-2-((2R)-2-(4-fluoro-3-methylphenyl)-2-methoxyethyl)-N-hydroxypentanamide] | 24 µM
CCC[C@@H](C[C@@H](OC)c1ccc(F)c(C)c1)C(=O)NO [Compound 167675, (2S)-2-((2R)-2-(4-fluoro-3-methylphenyl)-2-methoxyethyl)-N-hydroxypentanamide] | 2.6 µM
CO[C@H](C[C@H](CCN(Cc1ccccc1)C(C)C)C(=O)NO)c1ccc(F)cc1 [Compound 167784, (2S,4R)-2-(2-(benzyl(isopropyl)amino)ethyl)-4-(4-fluorophenyl)-N-hydroxy-4-methoxybutanamide] | 14 µM
CO[C@H](C[C@H](CCN(C)Cc1ccccc1)C(=O)NO)c1ccc(F)cc1 [Compound 167785, (2S,4R)-2-(2-(benzyl(methyl)amino)ethyl)-4-(4-fluorophenyl)-N-hydroxy-4-methoxybutanamide] | 2 µM
CO[C@H](C[C@H](CCN(C)Cc1ccc(F)cc1)C(=O)NO)c1ccc(F)cc1 [Compound 167795, (2S,4R)-2-(2-((4-fluorobenzyl)(methyl)amino)ethyl)-4-(4-fluorophenyl)-N-hydroxy-4-methoxybutanamide] | 2.1 µM
CO[C@H](C[C@H](CCN(c1ccccc1)c1ccccc1)C(=O)NO)c1ccc(F)cc1 [Compound 167796, (2S)-(2-Diphenylamino-ethyl)-(4R)-(4-fluoro-phenyl)-N-hydroxy-4-methoxy-butyramide] | 2.1 µM
CCCCN(C)CC[C@@H](C[C@@H](OC)c1ccc(F)cc1)C(=O)NO [Compound 167828, (2S,4R)-2-(2-(butyl(methyl)amino)ethyl)-4-(4-fluorophenyl)-N-hydroxy-4-methoxybutanamide] | 1.1 µM
